Test systems include CCRF-CEM leukemia; EKVX NSCLC; HCC-2998 colon; NCI-H460 lung; OVCAR-3 ovarian; SK-MEL-28 melanoma; U251 CNS; UACC-257 melanoma; COLO 205 colon; NCI-H226 lung.
Holding throughout (experiment): NCI anticancer screen, dose series, 48 h

Structures are written as SMILES. Several values for one entry are separate records, joined by “and”; a condition that tells them apart may be missing. Identical values can stand only once.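 Step 1: Grow cells in 96-well plates. Step 2: Expose to compound for 48 hours at 5 concentrations. Step 3: Interpolate endpoints linearly; if unreached, use highest concentration. At the GI50, growth is halved. TGI is the concentration that stops growth completely.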 A value given as a limit tells only on which side of the number the result lay.

With `CCN(CC)CCCC(C)Nc1cc(-c2ccc(C(F)(F)F)cc2)c(C#N)c2nc3ccccc3n12` (configuration not stated), the GI50 with CCRF-CEM leukemia was 0.846 µM; with EKVX NSCLC it was 2.29 µM; in the assay with HCC-2998 colon, 1.91 µM; in the assay on NCI-H460 lung, 1.82 µM; in the assay on OVCAR-3 ovarian, 1.84 µM; in the assay on SK-MEL-28 melanoma it was 0.325 µM. Moreover, the GI50 in the assay on U251 CNS was 2.04 µM; in the assay on UACC-257 melanoma, 2.08 µM. Also, the TGI was greater than 100 µM in the assay on CCRF-CEM leukemia; 5.82 µM in the assay with EKVX NSCLC; 3.67 µM with HCC-2998 colon; 3.61 µM in the assay on NCI-H460 lung; 3.68 µM in the assay on OVCAR-3 ovarian; 1.19 µM with SK-MEL-28 melanoma. The TGI in the assay with U251 CNS turned out to be 4.16 µM; with UACC-257 melanoma, 3.75 µM.
As for `COC(=O)NC1(NC(=O)OC)NC(=O)c2cc(OC)c(OC)cc2N1`, the TGI was 55.3 µM with CCRF-CEM leukemia; greater than 100 µM in the assay on COLO 205 colon; greater than 100 µM with EKVX NSCLC; greater than 100 µM with NCI-H460 lung; 67.6 µM in the assay on OVCAR-3 ovarian; greater than 100 µM with SK-MEL-28 melanoma. Also, in the assay with UACC-257 melanoma, the TGI was greater than 100 µM.
Regarding `Cc1ccc(S(=O)(=O)Oc2ccc([N+](=O)[O-])cc2[N+](=O)[O-])cc1`, the GI50 with CCRF-CEM leukemia was 0.6 µM; with COLO 205 colon it was 4.51 µM; in the assay with EKVX NSCLC, 17.9 µM; in the assay with NCI-H226 lung, 10.6 µM; in the assay on NCI-H460 lung, 15.4 µM; in the assay with OVCAR-3 ovarian, 3.24 µM. In addition, the GI50 was 13 µM in the assay on SK-MEL-28 melanoma, 3.83 µM with U251 CNS and 2.77 µM in the assay on UACC-257 melanoma. The TGI was 15.7 µM in the assay with CCRF-CEM leukemia; 18.6 µM with COLO 205 colon; 34.4 µM in the assay on EKVX NSCLC; 43.6 µM in the assay on NCI-H226 lung; 39 µM in the assay with NCI-H460 lung; 11.5 µM in the assay with OVCAR-3 ovarian. Further, the TGI was 26.4 µM in the assay with SK-MEL-28 melanoma, 14.5 µM in the assay on U251 CNS and 12.2 µM in the assay with UACC-257 melanoma.
As for `O=Nc1ccc(O)c2ccccc12`, the GI50 is 1.93 µM in the assay with COLO 205 colon; 1.88 µM in the assay on EKVX NSCLC; 3.31 µM in the assay with HCC-2998 colon; 2.02 µM in the assay with NCI-H226 lung; 3.66 µM in the assay on NCI-H460 lung; 0.25 µM with OVCAR-3 ovarian. The GI50 in the assay with SK-MEL-28 melanoma is 2.59 µM; in the assay on U251 CNS, 1.65 µM; in the assay on UACC-257 melanoma it was 1.63 µM. Also, the TGI in the assay on COLO 205 colon was found to be 3.92 µM; in the assay on EKVX NSCLC it was 4.43 µM; with HCC-2998 colon, 11.3 µM; in the assay on NCI-H226 lung, 4.3 µM; with NCI-H460 lung it was 13.5 µM; in the assay on OVCAR-3 ovarian, 0.643 µM. The TGI stood at 6.12 µM with SK-MEL-28 melanoma, 3.17 µM in the assay on U251 CNS and 3.23 µM in the assay with UACC-257 melanoma.
On to `CC1=C(C(=O)Nc2ccccc2)C(c2ccc([N+](=O)[O-])cc2)C(C(=O)Nc2ccccc2)=C(C)N1`, for which the TGI was 39.8 µM in the assay on CCRF-CEM leukemia; 46.2 µM in the assay on EKVX NSCLC; 45.8 µM in the assay on HCC-2998 colon; greater than 100 µM in the assay with NCI-H226 lung; 70.3 µM in the assay with NCI-H460 lung; greater than 100 µM in the assay on OVCAR-3 ovarian. Besides, the TGI in the assay on SK-MEL-28 melanoma was 88.5 µM; with U251 CNS it was 38.6 µM; with UACC-257 melanoma it was 53.8 µM.
For `COc1cc2c3c(c4ccc(OC)c(OC)c4c2cc1OC)CN1CCC[C@@H]1C3`, the TGI came out at 0.651 µM with CCRF-CEM leukemia; 0.378 µM in the assay on EKVX NSCLC; 1.78 µM with HCC-2998 colon; 0.263 µM in the assay on NCI-H226 lung; 2.09 µM in the assay with NCI-H460 lung; 16.6 µM in the assay on OVCAR-3 ovarian. In addition, the TGI with SK-MEL-28 melanoma is 7.43 µM; in the assay with U251 CNS, greater than 23.3 µM; with UACC-257 melanoma, 17.7 µM.
As to `O=C(O)C1=C(C(=O)Nc2ccccc2)C2C=CC1C2` (configuration not stated), the TGI in the assay with CCRF-CEM leukemia, with COLO 205 colon, with EKVX NSCLC, with HCC-2998 colon, in the assay on NCI-H460 lung and with OVCAR-3 ovarian was greater than 100 µM each time. Moreover, the TGI in the assay on SK-MEL-28 melanoma, in the assay with U251 CNS and in the assay with UACC-257 melanoma was greater than 100 µM throughout.
As for `COc1c2c3ccccc3nc-2n(C)c2ccccc12`, the GI50 is 6.73 µM with COLO 205 colon; 13.7 µM in the assay on EKVX NSCLC; 6.77 µM with NCI-H226 lung; 6.26 µM in the assay on NCI-H460 lung; 21 µM in the assay with OVCAR-3 ovarian; 14.7 µM in the assay with SK-MEL-28 melanoma. The GI50 in the assay on U251 CNS is 7.81 µM; with UACC-257 melanoma it was 21.9 µM. The TGI was 49.4 µM in the assay with COLO 205 colon; 57.2 µM in the assay on EKVX NSCLC; 74.3 µM in the assay with NCI-H226 lung; 32.1 µM in the assay on NCI-H460 lung; greater than 100 µM with OVCAR-3 ovarian; 36.9 µM with SK-MEL-28 melanoma. The figures for the TGI in the assay with U251 CNS and with UACC-257 melanoma were 32.7 µM and 55.6 µM, respectively.
As for `CCc1c2c(nc3cc4c(c(N)c13)OCO4)-c1cc3c(c(=O)n1C2)COC(=O)[C@]3(O)CC`, the GI50 in the assay on COLO 205 colon is 0.696 µM; with EKVX NSCLC, 1.93 µM and 0.962 µM; in the assay on HCC-2998 colon it was 0.0317 µM and 0.0431 µM; with NCI-H226 lung it was less than 0.001 µM; in the assay on NCI-H460 lung it was less than 0.001 µM; with OVCAR-3 ovarian, 0.278 µM and 0.264 µM. Besides, the GI50 with SK-MEL-28 melanoma is 0.473 µM and 0.249 µM; in the assay on U251 CNS, less than 0.001 µM; in the assay with UACC-257 melanoma it was 0.199 µM and 0.0583 µM. For the same compound, the TGI in the assay with EKVX NSCLC was 48.7 µM; in the assay with HCC-2998 colon, 6.38 µM and 0.676 µM; in the assay with NCI-H226 lung, 0.202 µM; in the assay with NCI-H460 lung, 0.47 µM and 0.157 µM; in the assay on OVCAR-3 ovarian, greater than 100 µM; in the assay on SK-MEL-28 melanoma, 5.44 µM and 32.4 µM. Besides, the TGI with U251 CNS is 0.0326 µM and 0.174 µM; with UACC-257 melanoma, 2.58 µM and 2.47 µM.
In the case of `N=C(N)/N=C(\N)c1c(-c2cc(O)ccc2O)nc2sccn12`, the GI50 in the assay on CCRF-CEM leukemia was 10.3 µM; with COLO 205 colon, 38.7 µM; with EKVX NSCLC, 98.6 µM; in the assay on NCI-H226 lung it was greater than 100 µM; in the assay with NCI-H460 lung, greater than 100 µM; with OVCAR-3 ovarian, 21.8 µM. Further, the results for the GI50 in the assay on SK-MEL-28 melanoma, in the assay with U251 CNS and in the assay with UACC-257 melanoma were 21.4 µM, 46.1 µM and 25.1 µM, respectively. Besides, the TGI with CCRF-CEM leukemia is 33.7 µM; with COLO 205 colon, greater than 100 µM; in the assay with EKVX NSCLC, greater than 100 µM; with NCI-H226 lung, greater than 100 µM; with NCI-H460 lung it was greater than 100 µM; with OVCAR-3 ovarian it was 54.8 µM. Also, the results for the TGI with SK-MEL-28 melanoma, with U251 CNS and in the assay with UACC-257 melanoma were 46 µM, greater than 100 µM and 62.7 µM, respectively.
